US5614408A, “Monoclonal antibodies to potato, tomato, and eggplant glycoalkaloids and assays for the same” (priority 1995, dated 1997)
Entries after “also recorded” stand apart in the source; their conditions may differ.

Experiments:
Assay type in all cases: binding, mouse
[1] = test system: monoclonal antibody Sol-106; assay: competitive inhibition ELISA (c-ELISA), monoclonal antibody Sol-106; details: Sol-106 (IgG2a); ± one standard deviation
Description: (§1) Five, 6 month old BALB/c mice were injected with 50 μl of the solanidine-KLH conjugate mixed 1:1 with Ribi adjuvant (Ribi Immunochem Research Inc., Hamilton, Mont.). The mice received half the dose intraperitoneally and half intramuscularly every other week for a total of three injections. One month later, and 4 days prior to fusion, a selected mouse was given an intraperitoneal injection of 50 μl of solanidine-KLHconjugate in sterile saline. The spleen was removed and the splenocytes fused with SP2/O myeloma cells as described by Stanker et al. (1986, J. Immunol., 136:4174-4180), the contents of which are incorporated by reference herein. The fused cells were plated over 30 96-well microculture plates previously coated with mouse peritoneal exudate cells (macrophage) and grown under conditions described by Elissalde et al. (1993, J. Agric. Food Chem., 41:2167-2171), the contents of which are also incorporated by reference herein.
(§2) db-ELISA. A modification of a direct-binding ELISA described by Stanker et al. (1993, J. Agric. Food Chem., 41:1332-1336), the contents of which are incorporated by reference herein, was used to screen the culture fluids from the growing hybridomas for antibodies to solanidine. Microtiter plates (Nunc Maxisorb, Roskilde, Denmark; or Costar high binding plates, Costar Corp., Wilmington, Mass.) were coated with SOL-BSA by addition of 100 μl/well of a 1 μg/ml solution of SOL-BSA in distilled water. The SOL-BSA was incubated in uncovered plates at 37° C. for 18 hr to evaporate the liquid and allow the SOL-BSA to coat the bottom of the microtiter wells. The "coated" plates were then stored in sealed plastic bags at 4° C. and used within 2 weeks. Nonreacted sites on the plates were blocked by adding 400 μl of a 3% solution of nonfat dry milk (NFDM) in assay buffer (0.1M Tris, 0.15M NaCl, 10 mg/ml nonfat dry milk, 0.001% Tween 20, 0.02% sodium azide) and incubating the plates at room temperature for 1 hr. The blocking solution was then discarded and 100 μl of the hybridoma supernatant(s) or anti-solanidine Mab (from ascites fluid) was added, and the plates incubated for 1 hr at 37° C. After incubation, the plates were washed with a solution of 0.05% TWEEN-20 in water, and peroxidase conjugated goat anti-mouse antiserum (Sigma Inc., St. Louis, Mo.), diluted 1:500 in assay buffer, was then added to each well. Following a second 1 hr incubation at 37° C., the plates were washed as described above. Finally, the substrate, 2,2'-azino-bis(ethylbenzthiazole-6-sulfonic acid) (ABTS), was added. Absorbance was measured at 405 nm and the resulting data analyzed by computer using an Excel (Microsoft, Redmond, Wash.) spreadsheet program.
(§3) c-ELISA. The competitive inhibition ELISA for solanidine and other glycoalkaloids was carried out as previously described for other compounds by Stanker et al. (1993, ibid). Briefly, to each well of an antigen (glycoalkaloid or aglycone) coated, non-fat-milk-blocked, microtiter plate prepared as described in the db-ELISA was added 100 μl of assay buffer. Competitors (free solanidine and other glycoalkaloids and aglycones, and four structurally related steroids cholesterol, digitonin, βsitosterol, and stigmasterol, shown in Table 1) dissolved in 100 μl of assay buffer were added to the microassay plate and serially diluted (a 2-fold series). Next, 100 μl of assay buffer containing a predetermined amount of anti-solanidine monoclonal antibody prepared above was added to each well. The amount of anti-alkaloid antibody added was the concentration (dilution from tissue culture supernatant) resulting in approximately 50% of maximum binding or signal in a direct-binding ELISA where no competitor was present. The plates were sealed with plastic wrap, incubated for 1 hr at 37° C., and then processed as described in the db-ELISA to detect bound antibody. […]

[2] = test system: monoclonal antibody Sol-91; assay: competitive inhibition ELISA (c-ELISA), monoclonal antibody Sol-91; details: Sol-91 (IgG2a); ± one standard deviation
Description: as §1, §2, §3

[3] = test system: monoclonal antibody Sol-71; assay: competitive inhibition ELISA (c-ELISA), monoclonal antibody Sol-71; details: Sol-71 (IgG2a); ± one standard deviation
Description: as §1, §2, §3

[4] = test system: monoclonal antibody Sol-68; assay: competitive inhibition ELISA (c-ELISA), monoclonal antibody Sol-68; details: Sol-68 (IgG1); ± one standard deviation
Description: as §1, §2, §3

[5] = test system: monoclonal antibody Sol-54; assay: competitive inhibition ELISA (c-ELISA), monoclonal antibody Sol-54; details: Sol-54 (IgG2a); ± one standard deviation
Description: as §1, §2, §3

[6] = test system: monoclonal antibody Sol-129; assay: competitive inhibition ELISA (c-ELISA), monoclonal antibody Sol-129; details: for IC50: Sol-129 (IgG1), ± one standard deviation; for relative affinity of Sol-129 / binding by Sol-129: in words
Description: as §1, §2, §3

[7] = test system: monoclonal antibody Sol-59; assay: competitive inhibition ELISA (c-ELISA), monoclonal antibody Sol-59; details: Sol-59 (IgG2a); ± one standard deviation
Description: as §1, §2, §3

[8] = test system: monoclonal antibody Sol-8; assay: competitive inhibition ELISA (c-ELISA), monoclonal antibody Sol-8; details: Sol-8 (IgG2a); ± one standard deviation
Description: as §1, §2, §3

[9] = test system: monoclonal antibody Sol-55; assay: competitive inhibition ELISA (c-ELISA), monoclonal antibody Sol-55; details: Sol-55 (IgG2a); ± one standard deviation
Description: as §1, §2, §3

[10] = test system: monoclonal antibody Sol-48; assay: competitive inhibition ELISA (c-ELISA), monoclonal antibody Sol-48; details: Sol-48 (IgG2a); ± one standard deviation
Description: as §1, §2, §3

[11] = test system: monoclonal antibody Sol-67; assay: competitive inhibition ELISA (c-ELISA), monoclonal antibody Sol-67; details: Sol-67 (IgG1); ± one standard deviation
Description: as §1, §2, §3

Row | SMILES | IC50 [1] | IC50 [2] | IC50 [3] | IC50 [4] | IC50 [5] | IC50 [6] [ppb] | relative affinity of Sol-129 [6] | IC50 [7] | IC50 [8] | IC50 [9] | IC50 [10] | IC50 [11] | binding by Sol-129 [6]
1 | C[C@H]1CC[C@@H]2[C@@H](C)[C@H]3[C@H](C[C@H]4[C@@H]5CC=C6C[C@@H](O)CC[C@]6(C)[C@H]5CC[C@]34C)N2C1 [solanidine] | 14 ppb | 36 ± 5.7 ppb | 1020 ppb | 489 ppb | 131 ± 53 ppb | 2.5 ± 0.35 | high affinity; also recorded: lowest relative affinity | 16 ± 1.7 ppb | 46 ± 6.4 ppb | 60 ± 19 ppb | 18 ± 4.4 ppb | 15.6 ppb | 
2 | C[C@@H]1CC[C@@]2(NC1)O[C@H]1C[C@H]3[C@@H]4CC=C5C[C@@H](O)CC[C@]5(C)[C@H]4CC[C@]3(C)[C@H]1[C@@H]2C [solasodine] |  |  |  |  |  |  |  |  |  |  |  |  | binds
3 | C[C@@H]1CC[C@@]2(NC1)O[C@H]1C[C@H]3[C@@H]4CC=C5C[C@@H](O[C@@H]6O[C@H](CO)[C@H](O)[C@H](O[C@@H]7O[C@H](CO)[C@@H](O)[C@H](O)[C@H]7O)[C@H]6O[C@@H]6O[C@@H](C)[C@H](O)[C@@H](O)[C@H]6O)CC[C@]5(C)[C@H]4CC[C@]3(C)[C@H]1[C@@H]2C [solasonine] | nc (no competition at 10,000 ppb) | nc (no competition at 10,000 ppb) | nc (no competition at 10,000 ppb) | nc (no competition at 10,000 ppb) | nc (no competition at 10,000 ppb) | 36 ± 3.2 | high affinity | nc (no competition at 10,000 ppb) | nc (no competition at 10,000 ppb) | nc (no competition at 10,000 ppb) | nc (no competition at 10,000 ppb) | nc (no competition at 10,000 ppb) | Sol-129 was the only antibody capable of binding
4 | C[C@H]1CC[C@]2(NC1)O[C@H]1C[C@H]3[C@@H]4CC[C@H]5C[C@@H](O)CC[C@]5(C)[C@H]4CC[C@]3(C)[C@H]1[C@@H]2C [tomatidine] | nc (no competition at 10,000 ppb) | nc (no competition at 10,000 ppb) | nc (no competition at 10,000 ppb) | nc (no competition at 10,000 ppb) | nc (no competition at 10,000 ppb) | 10.4 ± 2.0 |  | nc (no competition at 10,000 ppb) | nc (no competition at 10,000 ppb) | nc (no competition at 10,000 ppb) | nc (no competition at 10,000 ppb) | nc (no competition at 10,000 ppb) | specifically bound; also recorded: Sol-129 was the only antibody capable of binding
5 | C[C@H]1CC[C@@H]2[C@@H](C)[C@H]3[C@H](C[C@H]4[C@@H]5CC=C6C[C@@H](O[C@@H]7O[C@H](CO)[C@H](O[C@@H]8O[C@@H](C)[C@H](O)[C@@H](O)[C@H]8O)[C@H](O)[C@@H]7O[C@@H]7O[C@@H](C)[C@@H](O)[C@@H](O)[C@H]7O)CC[C@]6(C)[C@H]5CC[C@]34C)N2C1 [α-chaconine] | 54 ± 13 ppb | 82 ± 5.2 ppb | nc (no competition at 10,000 ppb) | nc (no competition at 10,000 ppb) | 165 ± 58 ppb | 2.8 ± 0.2 | high affinity | 25 ± 2.1 ppb | 294 ± 34 ppb | 204 ± 19 ppb | 323 ± 125 ppb | 20.2 ppb | 
